From PMC6679423 (International Journal of Molecular Sciences, 2019)
Marks after values point to notes of the source that are not given here. Values belong to the molecule of their own block, whether it stands above or below them.

How the values were obtained:
CYP3A4 = settings: cited from earlier work
human recombinant CYP1A1 = biological target: T1, human recombinant CYP1A1 (Homo sapiens, UniProt P04798); experiment: Vandetanib oxidation by human recombinant CYP1A1 (Supersomes); type: in vitro ADME
T1 construct: purchased Gentest Corp; host or cells: insect cells (baculovirus)
T1 sequence (P04798 1-512): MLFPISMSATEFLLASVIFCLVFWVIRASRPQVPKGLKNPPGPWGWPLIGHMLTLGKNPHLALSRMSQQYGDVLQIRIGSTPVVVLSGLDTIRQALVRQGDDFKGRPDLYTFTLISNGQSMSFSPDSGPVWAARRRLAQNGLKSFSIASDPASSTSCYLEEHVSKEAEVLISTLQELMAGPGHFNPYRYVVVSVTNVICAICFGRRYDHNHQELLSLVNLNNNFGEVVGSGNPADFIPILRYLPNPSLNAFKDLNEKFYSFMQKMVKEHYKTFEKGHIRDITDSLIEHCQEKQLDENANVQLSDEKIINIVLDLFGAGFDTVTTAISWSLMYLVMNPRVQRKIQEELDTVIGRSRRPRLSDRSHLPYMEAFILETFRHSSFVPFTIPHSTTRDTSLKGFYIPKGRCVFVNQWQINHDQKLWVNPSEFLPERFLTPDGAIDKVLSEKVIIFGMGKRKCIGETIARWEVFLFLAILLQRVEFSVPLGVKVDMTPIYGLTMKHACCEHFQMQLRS
Procedure: (§1) Vandetanib was from LC Laboratories (Woburn, MA, USA). Ketoconazole, NADPH, methimazol and other chemicals were all purchased from Sigma-Aldrich (St. Louis, MO, USA). The purity of all chemicals met the standards of American Chemical Society, unless noted otherwise. All animal experiments were conducted in accordance with the Regulations for the Care and Use of Laboratory Animals (311/1997, Ministry of Agriculture, Czech Republic), which follows the Declaration of Helsinki. Male Wistar rats (~125–150 g; AnLab, Czech Republic), male C57BL/6 mice ([…]; CXR Bioscience Ltd., Dundee, UK), and male New Zealand rabbits (2.5–3 kg; AnLab, Czech Republic) were employed as animal models. Animals were placed in cages in temperature- and humidity-controlled rooms, acclimatized for five days and maintained at 22 °C with a 12 h light/dark period. Standardized diet and water were provided ad libitum. Rats, mice and rabbits used to prepare microsomal fraction from untreated animals were sacrificed by cervical dislocation, livers snap-frozen in liquid nitrogen and stored at −80 °C until further processing (see below). For controls, livers of the animals were removed immediately after sacrifice, divided into small pieces (~1 g), snap-frozen in liquid nitrogen, and stored at −80 °C until isolation of microsomal fractions. Pooled microsomes were used for all in vitro experiments in the present study and prepared from 10 livers/group for all animal species following established protocols. Microsomal fractions were stored at −80 °C until analysis. Protein concentrations in the microsomal fractions were assessed using the bicinchoninic acid protein assay with bovine serum albumin as a standard. Male human hepatic microsomes (pooled sample) (sample LOT: 3043885) were from Gentest Corp. (Woburn, MA, USA). Microsomes from livers of twelve human donors were obtained from Gentest Corp. (Woburn, MA, USA) (cat. no. HG43–1, HG103, HG74, HG93, HG24, HG27, HG23, HG32, HK31, HK34, HG03, and HG42). Each human microsomal sample has been characterized for CYP, FMO and protein contents and specific CYP activities by Gentest Corp. We reanalyzed each microsomal preparation for specific CYP, NADPH:CYP reductase (POR) and FMO activities by assays described in the protocols of Gentest Corp. Our data were similar to those reported by Gentest Corp. in their specification sheets. […]

human hepatic microsomes [1] = experiment: Correlation of CYP- and FMO-linked activities with vandetanib metabolite formation in human hepatic microsomes; type: in vitro ADME; settings: 12 human liver microsomal samples; for Correlation coefficient (r) of metabolite amount with CYP2E1 activity: chlorzoxazone-6-hydroxylase
Procedure: as §1, with “sheets. The content of CYP, specific CYP and FMO activities in each human hepatic microsomes [phenacetin-O-deethylation (CYP1A2), coumarin-7-hydroxylation (CYP2A6), (S)-mephenytoin-N-demethylase (CYP2B6), paclitaxel-6α-hydroxylation (CYP2C8), diclofenac-4’-hydroxylation (CYP2C9), (S)-mephenytoin-4′-hydroxylation (CYP2C19), bufuralol-1’-hydroxylation (CYP2D6), chlorzoxazone-6-hydroxylation (CYP2E1), testosterone-6β-hydroxylation (CYP3A4), lauric acid-12-hydroxylation (CYP4A), methyl-p-tolyl sulfide oxidase (FMO)] are shown in Table 2. Human recombinant enzymes were used in the forms of Supersomes™ and obtained from Gentest Corp. In Supersomes™ microsomal fractions were isolated from insect cells that are transfected with baculovirus constructs containing cDNA of human CYP enzymes (CYP1A1/2, 1B1, 2A6, 2B6, 2C8/9/18/19/, 2D6, 2E1, 3A4). These Supersomes™ also express NADPH:CYP oxidoreductase (POR). However, because they are microsomes (particles of broken endoplasmic reticulum), other enzymes (proteins) of the endoplasmic reticulum membrane (like NADH:cytochrome b5 reductase and cytochrome b5) are also expressed at basal levels in these Supersomes™. We also utilized Supersomes™ which over-expressed cytochrome b5, in a molar ratio of CYP to cytochrome b5 of 1 to 5. In Supersomes™ where cytochrome b5 was not over-expressed (see above) pure cytochrome b5 was added to reach a molar ratio of CYP to cytochrome b5 of 1 to 5. Reconstitution of Supersomes™ with purified cytochrome b5 was performed as described previously.” for “sheets.”

human liver microsomes [2] = experiment: Vandetanib metabolite formation by hepatic microsomes of 12 human donors; type: in vitro ADME; settings: detection limit < 0.002
Procedure: as §1, with “sheets. The content of CYP, specific CYP and FMO activities in each human hepatic microsomes [phenacetin-O-deethylation (CYP1A2), coumarin-7-hydroxylation (CYP2A6), (S)-mephenytoin-N-demethylase (CYP2B6), paclitaxel-6α-hydroxylation (CYP2C8), diclofenac-4’-hydroxylation (CYP2C9), (S)-mephenytoin-4′-hydroxylation (CYP2C19), bufuralol-1’-hydroxylation (CYP2D6), chlorzoxazone-6-hydroxylation (CYP2E1), testosterone-6β-hydroxylation (CYP3A4), lauric acid-12-hydroxylation (CYP4A), methyl-p-tolyl sulfide oxidase (FMO)] are shown in Table 2. Human recombinant enzymes were used in the forms of Supersomes™ and obtained from Gentest Corp. In Supersomes™ microsomal fractions were isolated from insect cells that are transfected with baculovirus constructs containing cDNA of human CYP enzymes (CYP1A1/2, 1B1, 2A6, 2B6, 2C8/9/18/19/, 2D6, 2E1, 3A4). These Supersomes™ also express NADPH:CYP oxidoreductase (POR). However, because they are microsomes (particles of broken endoplasmic reticulum), other enzymes (proteins) of the endoplasmic reticulum membrane (like NADH:cytochrome b5 reductase and cytochrome b5) are also expressed at basal levels in these Supersomes™. We also utilized Supersomes™ which over-expressed cytochrome b5, in a molar ratio of CYP to cytochrome b5 of 1 to 5. In Supersomes™ where cytochrome b5 was not over-expressed (see above) pure cytochrome b5 was added to reach a molar ratio of CYP to cytochrome b5 of 1 to 5. Reconstitution of Supersomes™ with purified cytochrome b5 was performed as described previously.” for “sheets.”

human recombinant FMO1 = experiment: Vandetanib oxidation by human recombinant FMOs (Supersomes); type: in vitro ADME; settings: recombinant FMO1 vs FMO3
Procedure: (§2) Vandetanib was from LC Laboratories (Woburn, MA, USA). Ketoconazole, NADPH, methimazol and other chemicals were all purchased from Sigma-Aldrich (St. Louis, MO, USA). The purity of all chemicals met the standards of American Chemical Society, unless noted otherwise. All animal experiments were conducted in accordance with the Regulations for the Care and Use of Laboratory Animals (311/1997, Ministry of Agriculture, Czech Republic), which follows the Declaration of Helsinki. Male Wistar rats (~125–150 g; AnLab, Czech Republic), male C57BL/6 mice ([…]; CXR Bioscience Ltd., Dundee, UK), and male New Zealand rabbits (2.5–3 kg; AnLab, Czech Republic) were employed as animal models. Animals were placed in cages in temperature- and humidity-controlled rooms, acclimatized for five days and maintained at 22 °C with a 12 h light/dark period. Standardized diet and water were provided ad libitum. Rats, mice and rabbits used to prepare microsomal fraction from untreated animals were sacrificed by cervical dislocation, livers snap-frozen in liquid nitrogen and stored at −80 °C until further processing (see below). […] Protein concentrations in the microsomal fractions were assessed using the bicinchoninic acid protein assay with bovine serum albumin as a standard. […]

[3] = system: rabbit hepatic microsomes; experiment: Oxidation of vandetanib by rabbit hepatic microsomes; type: in vitro ADME; settings: 50 µM vandetanib, N-oxide higher
Procedure: as §2

human liver microsomes [4] = experiment: Vandetanib metabolite formation by hepatic microsomes of 12 human donors; type: in vitro ADME; settings: human hepatic microsomal sample HK23; detection limit < 0.002
human hepatic microsomes [5] = experiment: Oxidation of vandetanib by human hepatic microsomes; type: in vitro ADME
Excerpt: The reaction was initiated by adding vandetanib.

VEGFR and EGFR = settings: compared to the parent drug; cited from earlier work
rat hepatic microsomes = experiment: Oxidation of vandetanib by rat hepatic microsomes; type: in vitro ADME; settings: 50 µM vandetanib, N-oxide higher
Procedure: as §2

mouse hepatic microsomes = experiment: Oxidation of vandetanib by mouse hepatic microsomes; type: in vitro ADME; settings: 50 µM vandetanib, N-oxide higher
Procedure: as §2

[6] = biological target: CYP enzymes in human liver microsomes (Homo sapiens, UniProt P08684); experiment: Effects of inhibitors on N-desmethylvandetanib formation in human liver microsomes; settings: inhibitor 50 μM equimolar to vandetanib (50 μM), 0.1 nmol microsomal CYP
Sequence of CYP enzymes in human liver microsomes (P08684 2-503): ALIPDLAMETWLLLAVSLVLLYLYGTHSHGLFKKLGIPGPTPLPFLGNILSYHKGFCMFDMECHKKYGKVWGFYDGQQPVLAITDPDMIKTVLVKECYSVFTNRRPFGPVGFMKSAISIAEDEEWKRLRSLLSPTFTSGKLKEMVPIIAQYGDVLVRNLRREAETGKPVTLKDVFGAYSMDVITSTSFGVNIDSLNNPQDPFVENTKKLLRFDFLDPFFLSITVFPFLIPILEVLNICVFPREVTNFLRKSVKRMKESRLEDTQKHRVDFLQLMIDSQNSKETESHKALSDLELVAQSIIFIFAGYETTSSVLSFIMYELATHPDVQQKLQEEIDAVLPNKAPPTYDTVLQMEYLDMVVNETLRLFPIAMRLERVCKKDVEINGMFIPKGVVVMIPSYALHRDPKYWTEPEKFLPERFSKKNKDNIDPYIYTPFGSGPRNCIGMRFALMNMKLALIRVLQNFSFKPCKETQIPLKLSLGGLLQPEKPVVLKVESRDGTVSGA
Sequence of CYP enzymes in human liver microsomes (P16435 2-677, further chain): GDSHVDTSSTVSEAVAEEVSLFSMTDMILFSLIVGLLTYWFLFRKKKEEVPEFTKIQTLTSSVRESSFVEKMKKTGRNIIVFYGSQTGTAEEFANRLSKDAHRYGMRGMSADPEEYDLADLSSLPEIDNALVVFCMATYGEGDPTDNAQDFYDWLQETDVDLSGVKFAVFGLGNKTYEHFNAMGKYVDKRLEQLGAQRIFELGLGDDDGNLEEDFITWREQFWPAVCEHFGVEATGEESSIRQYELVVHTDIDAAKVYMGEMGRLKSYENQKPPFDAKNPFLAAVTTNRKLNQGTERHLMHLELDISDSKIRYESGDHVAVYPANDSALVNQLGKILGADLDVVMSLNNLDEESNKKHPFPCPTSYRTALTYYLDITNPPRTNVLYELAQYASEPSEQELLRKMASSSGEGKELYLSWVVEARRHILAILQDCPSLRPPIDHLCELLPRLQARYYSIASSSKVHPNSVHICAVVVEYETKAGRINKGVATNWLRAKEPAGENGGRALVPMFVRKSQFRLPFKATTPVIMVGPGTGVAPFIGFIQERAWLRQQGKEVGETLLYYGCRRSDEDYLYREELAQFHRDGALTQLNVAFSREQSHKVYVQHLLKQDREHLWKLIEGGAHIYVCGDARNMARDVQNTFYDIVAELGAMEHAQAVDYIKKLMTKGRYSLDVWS
Procedure: After the incubations, 5 µL of 1 mM phenacetine (dissolved in methanol) was added as internal standard. The reaction was stopped by extraction with dichlormethane (2 × 1 mL).
Inhibition studies in human liver microsomes were essentially conducted as reported previously.

Compound: CCC(C)n1ncn(-c2ccc(N3CCN(c4ccc(OCC5COC(Cn6cncn6)(c6ccc(Cl)cc6Cl)O5)cc4)CC3)cc2)c1=O (stereo not shown) [itraconazol]
- inhibition of the formation of N-desmethylvandetanib after vandetanib treatment (CYP3A4): almost ineffective

- VMax, maximal velocity of N-desmethylvandetanib formation (human recombinant CYP1A1; CYP1A1, hyperbolic kinetics): 0.76 ± 0.02 peak area/min/nmol CYP
- K0.5, substrate concentration corresponding to half-maximal velocity (human recombinant CYP1A1; CYP1A1, oxidation to N-desmethylvandetanib): 35.12 ± 2.75 µM
Compound: COc1cc2c(Nc3ccc(Br)cc3F)ncnc2cc1OCC1CCN(C)CC1 [vandetanib, N-(4-bromo-2-fluorophenyl)-6-methoxy-7-[(1-methylpiperidin-4-yl)-methoxy]-quinazolin-4-amine, reference compound]

- Correlation coefficient (r) of metabolite amount with POR (human hepatic microsomes [1]): 0.035
- Correlation coefficient (r) of metabolite amount with Total CYPs (human hepatic microsomes [1]): 0.166
- Correlation coefficient (r) of metabolite amount with CYP2C19 activity (human hepatic microsomes [1]; (S)-mephenytoin-4′-hydroxylase): 0.088
- Correlation coefficient (r) of metabolite amount with CYP2B6 activity (human hepatic microsomes [1]; (S)-mephenytoin-N-demethylase): 0.093
- Correlation coefficient (r) of metabolite amount with CYP2D6 activity (human hepatic microsomes [1]; bufuralol-1′-hydroxylase): −0.343
- Correlation coefficient (r) of metabolite amount with CYP2E1 activity (human hepatic microsomes [1]): 0.714
- Correlation coefficient (r) of metabolite amount with CYP2E1 activity (human hepatic microsomes [1]; listed as M2): 0.714 **
- Correlation coefficient (r) of metabolite amount with CYP2A6 activity (human hepatic microsomes [1]; coumarine-7-hydroxylase): −0.339
- Correlation coefficient (r) of metabolite amount with CYP2C9 activity (human hepatic microsomes [1]; diclofenac-4′-hydroxylase): −0.039
- Correlation coefficient (r) of metabolite amount with FMO activity (human hepatic microsomes [1]; methyl-p-tolyl sulfide oxidase, listed as M2): 0.736 **
- Correlation coefficient (r) of metabolite amount with CYP2C8 activity (human hepatic microsomes [1]; paclitaxel-6α-hydroxylase): 0.288
- Correlation coefficient (r) of metabolite amount with CYP1A2 activity (human hepatic microsomes [1]; phenacetin-O-deethylase): −0.157
- Correlation coefficient (r) of metabolite amount with CYP3A4 activity (human hepatic microsomes [1]; testosterone-6β-hydroxylase): −0.200
- vandetanib-N-oxide (M2) formed (human liver microsomes [2]; human hepatic microsomal sample HG24): 0.004 peak area/(mg protein × min)
- vandetanib-N-oxide (M2) formed (human liver microsomes [2]; human hepatic microsomal sample HG42): 0.015 peak area/(mg protein × min)
- vandetanib-N-oxide (M2) formed (human liver microsomes [2]; human hepatic microsomal sample HG74): 0.004 peak area/(mg protein × min)
- vandetanib-N-oxide (M2) formed (human liver microsomes [2]; human hepatic microsomal sample HG93): 0.112 peak area/(mg protein × min)
- vandetanib-N-oxide (M2) formed (human liver microsomes [2]; human hepatic microsomal sample HG103): 0.004 peak area/(mg protein × min)
- vandetanib-N-oxide (M2) formed (human liver microsomes [2]; human hepatic microsomal sample HK31): 0.015 peak area/(mg protein × min)
- efficiency of FMO1 to form vandetanib-N-oxide relative to FMO3 (human recombinant FMO1): over 5 times
- F, fold difference between formation of N-desmethylvandetanib and vandetanib-N-oxide [3]: 4- to 8 fold
- vandetanib-N-oxide (M2) formed (human liver microsomes [4]): 0.008 peak area/(mg protein × min)
- vandetanib-N-oxide formed at fold lower amounts than N-desmethylvandetanib (human hepatic microsomes [5]): ~ 4 fold
- F, fold difference between formation of N-desmethylvandetanib and vandetanib-N-oxide (rat hepatic microsomes): 4- to 8 fold
- F, fold difference between formation of N-desmethylvandetanib and vandetanib-N-oxide (mouse hepatic microsomes): 4- to 8 fold
Compound: COc1cc2c(Nc3ccc(Br)cc3F)ncnc2cc1OCC1CC[N+](C)([O-])CC1 (stereo not shown) [vandetanib-N-oxide]
- pharmacological activity relative to vandetanib (fold less active) (VEGFR and EGFR): more than 50 fold

Compound: O=c1cc(-c2ccccc2)oc2c1ccc1ccccc12 [α-Napththoflavone, α-naphthoflavone]
- % of Inhibition, N-Desmethyvandetanib Formation [6]: 0%
- % of Inhibition, N-Desmethyvandetanib Formation ([6]; listed as α-NF): no inhibitory effects
